Publication PMC11414674, “Cryo-EM structure of ACE2-SIT1 in complex with tiagabine” (The Journal of Biological Chemistry, 2024)

Columns and labels:
[1] = molecular target: T1, SIT1 (SLC6A20) (Homo sapiens, UniProt Q9NP91); experiment: […]proline uptake in Xenopus oocytes, inhibitor at […]; type: cell-based; design: with ACE2; settings: read-out: % inhibition at 100 μM
[2] = molecular target: T1, SIT1 (SLC6A20); experiment: cryo-EM structure at […] Å; IC50 from […]proline uptake in Xenopus oocytes expressing SIT1-ACE2 ([…] proline); type: cell-based; design: full-length human SIT1, N-terminal FLAG tag, in complex with full-length ACE2; with ACE2
[3] = molecular target: T2, B0AT2 (SLC6A15) (Homo sapiens, UniProt Q9H2J7); experiment: labelled leucine uptake in Xenopus oocytes, tiagabine at […]; type: cell-based
T2 sequence (Q9H2J7 1-730): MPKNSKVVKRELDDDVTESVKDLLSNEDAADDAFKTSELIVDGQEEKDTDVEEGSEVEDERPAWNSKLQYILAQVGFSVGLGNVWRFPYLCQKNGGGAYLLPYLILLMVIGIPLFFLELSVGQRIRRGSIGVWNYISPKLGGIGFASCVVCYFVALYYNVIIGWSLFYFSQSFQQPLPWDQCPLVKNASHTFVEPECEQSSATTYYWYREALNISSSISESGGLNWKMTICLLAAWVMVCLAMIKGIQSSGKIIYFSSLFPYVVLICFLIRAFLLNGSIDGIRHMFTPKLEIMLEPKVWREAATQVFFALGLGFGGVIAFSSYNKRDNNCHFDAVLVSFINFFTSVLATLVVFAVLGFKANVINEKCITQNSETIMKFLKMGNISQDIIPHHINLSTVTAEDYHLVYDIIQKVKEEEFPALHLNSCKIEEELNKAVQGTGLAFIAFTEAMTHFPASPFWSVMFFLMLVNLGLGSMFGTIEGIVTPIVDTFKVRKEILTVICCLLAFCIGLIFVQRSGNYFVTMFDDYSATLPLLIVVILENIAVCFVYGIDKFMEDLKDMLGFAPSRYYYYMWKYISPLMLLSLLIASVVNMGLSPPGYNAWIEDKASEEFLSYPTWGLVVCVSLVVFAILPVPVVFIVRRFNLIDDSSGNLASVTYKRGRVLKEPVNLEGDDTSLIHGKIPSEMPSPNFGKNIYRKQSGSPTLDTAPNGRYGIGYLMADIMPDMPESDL

[4] = substrate: O=C(O)[C@@H]1CCCN1; experiment: cells, lysate or membranes; settings: Na+ and Cl- orthosteric substrate site

T1 sequence (Q9BYF1 18-805 partner, one chain of several): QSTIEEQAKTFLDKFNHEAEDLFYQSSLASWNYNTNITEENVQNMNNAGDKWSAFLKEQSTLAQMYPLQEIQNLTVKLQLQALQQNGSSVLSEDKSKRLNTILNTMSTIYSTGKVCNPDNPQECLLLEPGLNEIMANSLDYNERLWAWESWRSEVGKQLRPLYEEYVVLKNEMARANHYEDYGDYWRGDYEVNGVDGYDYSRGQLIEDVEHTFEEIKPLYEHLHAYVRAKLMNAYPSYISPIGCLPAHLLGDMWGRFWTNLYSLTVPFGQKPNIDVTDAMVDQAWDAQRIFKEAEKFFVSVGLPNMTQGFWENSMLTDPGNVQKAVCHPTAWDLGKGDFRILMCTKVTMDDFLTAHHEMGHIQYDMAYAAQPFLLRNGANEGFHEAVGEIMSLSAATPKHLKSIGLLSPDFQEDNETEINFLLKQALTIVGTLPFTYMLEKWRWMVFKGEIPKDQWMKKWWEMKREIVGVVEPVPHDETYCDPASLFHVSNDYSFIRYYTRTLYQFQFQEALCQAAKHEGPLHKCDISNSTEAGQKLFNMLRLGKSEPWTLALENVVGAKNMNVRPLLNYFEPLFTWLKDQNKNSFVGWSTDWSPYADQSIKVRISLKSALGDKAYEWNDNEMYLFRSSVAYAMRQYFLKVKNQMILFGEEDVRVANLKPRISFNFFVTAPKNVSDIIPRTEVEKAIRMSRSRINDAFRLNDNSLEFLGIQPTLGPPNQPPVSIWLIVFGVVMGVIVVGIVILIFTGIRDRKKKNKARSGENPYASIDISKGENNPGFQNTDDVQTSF

O=C(O)C1=CCCN(CCOC(c2ccc(C(F)(F)F)cc2)c2ccc(C(F)(F)F)cc2)C1 [CI966]
inhibition at 100 µM [1]: 53%

O=C(O)C1CCCN(CCC=C(c2ccccc2)c2ccccc2)C1 (centres unmarked) [SKF89976A]
inhibition at 100 µM [1]: 58%

Cc1ccsc1C(=CCCN1CCC[C@@H](C(=O)O)C1)c1sccc1C [tiagabine]
IC50 [2]: 18 ± 4 µM | labelled leucine uptake in Xenopus oocytes, tiagabine at 100 μM [3]: The branched-chain amino acid transporter B^0AT2 (SLC6A15) was similarly sensitive to inhibition by Tiagabine

B1: SIT1 (SLC6A20) (Homo sapiens) (protein)
chain: MEKARPLWANSLQFVFACISYAVGLGNVWRFPYLCQMYGGGSFLVPYIIMLIVEGMPLLYLELAVGQRMRQGSIGAWRTISPYLSGVGVASVVVSFFLSMYYNVINAWAFWYLFHSFQDPLPWSVCPLNGNHTGYDEECEKASSTQYFWYRKTLNISPSLQENGGVQWEPALCLLLAWLVVYLCILRGTESTGKVVYFTASLPYCVLIIYLIRGLTLHGATNGLMYMFTPKIEQLANPKAWINAATQIFFSLGLGFGSLIAFASYNEPSNNCQKHAIIVSLINSFTSIFASIVTFSIYGFKATFNYENCLKKVSLLLTNTFDLEDGFLTASNLEQVKGYLASAYPSKYSEMFPQIKNCSLESELDTAVQGTGLAFIVYTEAIKNMEVSQLWSVLYFFMLLMLGIGSMLGNTAAILTPLTDSKIISSHLPKEAISGLVCLVNCAIGMVFTMEAGNYWFDIFNDYAATLSLLLIVLVETIAVCYVYGLRRFESDLKAMTGRAVSWYWKVMWAGVSPLLIVSLFVFYLSDYILTGTLKYQAWDASQGQLVTKDYPAYALAVIGLLVASSTMCIPLAALGTFVQRRLKRGDADPVA
Km [4]: 130 µM
